We go through six compounds from US20150105252A1, “SUBSTITUTED PYRAZOLES AS HERBICIDES” (E I DU PONT DE NEMOURS AND COMPANY, priority 2013, published 2015).

In experiment [1] the test system is ragweed. Briefly: Test E preemergence. It counts as in vivo, Ambrosia elation. The following applies: 21 days, scale 0 to 100. The source says: (§1) Seeds of plant species selected from bermudagrass (Cynodon dactylon), Surinam grass (Brachiaria decumbens), crabgrass, large (large crabgrass, Digitaria sanguinalis), crabgrass, naked (naked crabgrass, Digitaria nuda), foxtail, green (green foxtail, Setaria viridis), johnsongrass (Sorghum halepense), kochia (Kochia scoparia), morningglory (pitted morningglory, Ipomoea lacunosa), nutsedge, purple (purple nutsedge, Cyperus rotundus), ragweed (common ragweed, Ambrosia elation), mustard, black (black mustard, Brassica nigra), guineagrass (Panicum maximum), dallisgrass (Paspalum dilatatum), barnyardgrass (Echinochloa crus-galli), sandbur (southern sandbur, Cenchrus echinatus), sowthistle (common sowthistle, Sonchus oleraceous), ryegrass, Italian (Italian ryegrass, Lolium multiflorum), signalgrass (broadleaf signalgrass, Brachiaria platyphylla), dayflower, VA (Virginia (VA) dayflower, Commelina virginica), bluegrass (annual bluegrass, Poa annua), quackgrass (Elytrigia repens), mallow (common mallow, Malva sylvestris), buckwheat, wild (wild buckwheat, Polygonum convolvulus), leafy spurge (Euphorbia esula), common chickweed (Stellaria media), wild poinsettia (Euphorbia heterophylla), pigweed, palmer (palmer pigweed, Amaranthus palmeri), and pigweed (redroot pigweed, Amaranthus retroflexus) were planted into a blend of loam soil and sand and treated preemergence with test chemicals formulated in a non-phytotoxic solvent mixture which included a surfactant.
(§2) Treated plants and controls were maintained in a greenhouse for 21 days, after which time all species were compared to controls and visually evaluated. Plant response ratings, summarized in Table E, are based on a scale of 0 to 100 where 0 is no effect and 100 is complete control. A dash (-) response means no test result.

In experiment [2] the test system is pigweed, palmer. Description: Test E preemergence. It counts as in vivo, Amaranthus palmeri. To be noted: 21 days, scale 0 to 100.
Text: as §1, §2

Experiment [3] deals with cocklebur. Description: Test F preemergence. It counts as in vivo, Xanthium strumarium. To be noted: scale 0 to 100. From the text:
Seeds of plant species selected from corn (Zea mays), soybean (Glycine max), velvetleaf (Abutilon theophrasti), lambsquarters (Chenopodium album), wild poinsettia (Euphorbia heterophylla), pigweed, palmer (palmer pigweed, Amaranthus palmeri), common waterhemp (Amaranthus rudis), surinam grass (Brachiaria decumbens), large crabgrass (Digitaria sanguinalis), crabgrass, Brazil (Brazilian crabgrass, Digitaria horizontalis), fall panicum (Panicum dichotomiflorum), giant foxtail (Setaria faberii), green foxtail (Setaria viridis), goosegrass (Eleusine indica), johnsongrass (Sorghum halepense), common ragweed (Ambrosia elation), barnyardgrass (Echinochloa crus-galli), southern sandbur (Cenchrus echinatus), arrowleaf sida (Sida rhombifolia), Italian ryegrass (Lolium multiflorum), dayflower, VA (Virginia (VA) dayflower, Commelina virginica), field bindweed (Convolvulus arvensis), cocklebur (common cocklebur, Xanthium strumarium), morningglory (Ipomoea coccinea), nightshade (eastern black nightshade, Solanum ptycanthum), kochia (Kochia scoparia), yellow nutsedge (Cyperus esculentus), and hairy beggarticks (Bidens pilosa), were planted into a silt loam soil and treated preemergence with test chemicals formulated in a non-phytotoxic solvent mixture which included a surfactant.
At the same time, plants from these crop and weed species and also horseweed (Canada horseweed, Conyza canadensis), smartweed (ladysthumb smartweed, Polygonum persicaria), waterhemp_RES1, (ALS & Triazine resistant common waterhemp, Amaranthus rudis), and waterhemp_RES2, (ALS & HPPD resistant common waterhemp, Amaranthus rudis) were treated with postemergence applications of test chemicals formulated in the same manner. Plants ranged in height from 2 to 18 cm for postemergence treatments (1- to 4-leaf stage). Treated plants and controls were maintained in a greenhouse for 14 to 21 days, after which time all species were compared to controls and visually evaluated. Plant response ratings, summarized in Table F, are based on a scale of 0 to 100 where 0 is no effect and 100 is complete control. […]

Turning to `CCc1cc(C(=O)NCC(F)(F)F)nn1Cc1ccnc(C(F)(F)F)c1` [Compound 78, 5-ethyl-N-(2,2,2-trifluoroethyl)-1-[[(2-trifluoromethyl)-4-pyridinyl]methyl]-1H-pyrazole-3-carboxamide], the “Plant response rating, Ragweed” value stood at 75 in experiment [1] (16 g ai/ha); 100 in experiment [1] (31 g ai/ha); 100 in experiment [1] (62 g ai/ha); 100 in experiment [1] (125 g ai/ha); 100 in experiment [1] (250 g ai/ha). Moreover, the “Plant response rating, Pigweed, Palmer” value is 40 in experiment [2] (16 g ai/ha); 80 in experiment [2] (31 g ai/ha); 100 in experiment [2] (62 g ai/ha); 100 in experiment [2] (125 g ai/ha); 100 in experiment [2] (250 g ai/ha).
For `CCc1cc(C(=O)NC(C)C)nn1Cc1ccnc(C(F)(F)F)c1` [Compound 103], the “Plant response rating, Ragweed” value is listed as 5 in experiment [1] (16 g ai/ha); 98 in experiment [1] (31 g ai/ha); 100 in experiment [1] (62 g ai/ha); 100 in experiment [1] (125 g ai/ha); 100 in experiment [1] (250 g ai/ha).
Consider `CCOc1cc(C(=O)NCC(F)(F)F)nn1Cc1ccnc(C(F)(F)F)c1` [Compound 104], for which the “Plant response rating, Ragweed” value in experiment [1] (16 g ai/ha), in experiment [1] (31 g ai/ha), in experiment [1] (62 g ai/ha), in experiment [1] (125 g ai/ha) and in experiment [1] (250 g ai/ha) was 100 each time.
On to `CCCc1cc(C(=O)NCC(F)(F)F)nn1Cc1ccnc(C(F)(F)F)c1` [Compound 105], for which the “Plant response rating, Ragweed” value in experiment [1] (16 g ai/ha) came to 70; in experiment [1] (31 g ai/ha), 100; in experiment [1] (62 g ai/ha), 100; in experiment [1] (125 g ai/ha), 100; in experiment [1] (250 g ai/ha), 100.
Take `CCOc1cc(C(=O)NC2CC2)nn1Cc1ccnc(C(F)(F)F)c1` [Compound 189]: the “Plant response rating, Ragweed” value is on record as 95 in experiment [1] (8 g ai/ha), 100 in experiment [1] (16 g ai/ha), 100 in experiment [1] (31 g ai/ha) and 100 in experiment [1] (62 g ai/ha).
As for `CCc1cc(C(=O)NC2CC2)nn1Cc1ccnc(OCC(F)(F)F)c1` [Compound 200], the “Plant response rating, Cocklebur” value in experiment [3] (16 g ai/ha) is 20; in experiment [3] (62 g ai/ha) it was 30; in experiment [3] (250 g ai/ha) it was 30.
